Results from patent US6046228A, “Anti-viral pharmaceutical compositions containing saturated 1,2-dithiaheterocyclic compounds and uses thereof” (priority 1999, dated 2000).

How the values were obtained:
HIV-1RF = assay: effect of increasing multiplicity of infection, CEM-SS cells; assay type: cell-based; conditions: for EC50: Human immunodeficiency virus 1, CEM-SS
Method: (§1) Initial anti-HIV screening was performed with CEM-SS cells and HIV-1RFusing the XTT cytoprotection assay as previously described (Weislow et al., J. National Cancer Inst. 81: 577-586, (1989)). HIV-1 isolates included common laboratory stains (RF, IIIB and MN), as well as a panel of HIV-1 clinical isolates (Cushman et al., J. Med. Chem. 37: 3040-3050, (1994)). The pyridone-resistant HIV-1A17 isolate (Nunberg et al., J. Virol., 65: 4887-4892 (1991)) was obtained from Emilio Emini at Merck Sharpe and Dohme Laboratories. Phytohemagglutinin-stimulated human peripheral blood lymphocytes (PBLs) and fresh monocyte-macrophage (Mono/MF) cultures were prepared and utilized in antiviral assays as previously described (Rice et al., Proc. Nat'l. Academy Science, USA 90: 9721-9724, (1993)); (Cushman et al., J. Med. Chem. 37: 3040-3050, (1994)). EC50 values for these cultures indicate the drug concentration that provided a 50% reduction in viral p24 production. […] The compounds can be synthesized according to the teachings of Singh et al., Sulfur Letters 8: 107-114, (1988). The 4,5-cis-dihydroxy(1,1-dioxy-1,2,-dithiohexane) compound (NSC 624151) has been abbreviated as 624151 for convenience. MT-2, MT-4, U1, HeLa-CD4-LTR-β-gal and 174xCEM cells were obtained from the AIDS Research and Reference Program (National Institute of Allergy and Infectious Disease, National Institutes of Health, Bethesda, Md. USA), as were the HIV-2MS and the AZT-resistant HIV-1G910-6 isolates.

HIV-1NL4-3 = assay: XTT cytopathicity assay, NL4-3 without RT mutation; assay type: cell-based; conditions: Human immunodeficiency virus 1, NL43; MT-2, NL4-3, RT mutation None
Method: as §1, with “MT-2, MT-4, U1, HeLa-CD4-LTR-β-gal and 174xCEM cells were obtained from the AIDS Research and Reference Program (National Institute of Allergy and Infectious Disease, National Institutes of Health, Bethesda, Md. USA), as were the HIV-2MS and the AZT-resistant HIV-1G910-6 isolates.” left out

[1] = biological target: T1, p7NC protein in intact HIV-1MN virions (HIV-1 M:B_MN, UniProt P05888); assay: p7NC immunoblot of treated intact virions, non-reducing SDS-PAGE; assay type: biochemical; conditions: for detectable virion p7NC / cross-linkage of virion NC proteins: HIV-1MN, FIG. 2(A)
T1 construct: cut from Gag polyprotein Pr55gag (also Gag-Pol Pr160)
Method: Fluorescence measurements of the Trp^37 residue in the C-terminal zinc finger of the recombinant HIV-1 p7NC protein were performed as previously described (Rice et al., Science 270:1194, 1995). The p7NC protein was prepared at 20 μg/ml in 10 mM sodium phosphate buffer (pH 7.0), treated with 25 μM of each compound, then after indicated time intervals the samples were diluted 1/10 in 10 mM sodium phosphate buffer (pH 7.0) and the fluorescence intensity measured. The excitation and emission wavelengths utilized with the Shimadzu RF5000 spectrofluorimeter were 280 nm and 351 nm, respectively. In an alternate assay, the zinc-selective fluorescent probe N-(6-methoxy-8quinolyl-)-p-toluenesulfonamide (TSQ, Molecular Probes, Eugene, Oreg.) originally described by Fredrickson (J. Neurosci. Meth. 20:91, 1987) was utilized to measure zinc released from the p7NC protein in vitro. Briefly, 2 μM recombinant HIV-1 p7NC protein in 10 mM sodium phosphate buffer, pH 7.0, 10% glycerol was treated with 10 μM 624151 ([…] total volume in 96-well plates), and the time-dependent increase in fluorescence was measured on a Labsystems Fluoroskan II (360 nm excitation filter and 460 nm emission filter) over a period of 2 hours. Induction of alterations of p7NC proteins within intact virions involved treatment of HIV-1MN for 1 hour at 37° C. with 25 μM test compound. Samples were centrifuged 1 hour at 4° C. under 18,000×g to pellet the virus from the drug. Virus pellets were resolved by non-reducing SDS-PAGE and analyzed by immunoblot using monospecific rabbit antisera to the purified p7NC protein.
In order to determine if the 624151 entered intact HIV-1 virions and affected the p7NC protein zinc fingers, purified HIV-1MN was treated with increasing concentrations of the compound and the viral proteins were then separated by non-reducing SDS-PAGE and immunoblotted with monospecific antisera to the p7NC protein (FIG. 2(A)). […] Thus, 624151 effectively entered and inactivated cell-free HIV-1 virions by chemically attacking the p7NC CCHC zinc fingers and promoting cross-linkage among the p7NC proteins.

[2] = test system: monocyte-macrophage (Mo/M.PHI.) cultures; assay: cytotoxicity in monocyte-macrophage cultures; assay type: cell-based
Method: as §1

HIV-1 protease = biological target: T2, HIV-1 protease (Human immunodeficiency virus type 1 group M subtype B, UniProt P04585); assay: processing of purified recombinant Pr55^gag by purified HIV-1 protease; assay type: biochemical; conditions: data not shown, in words
T2 construct: the purified HIV-1 protease and integrase enzymes

[3] = non-reducing SDS-PAGE, in words

O=S1(=O)C[C@H](O)[C@H](O)CS1 (relative stereo) [NSC 624151, cis-1,1-dioxo[1,2]dithiane-4,5-diol]
EC50 (HIV-1RF; MOI 0.01): 8.4 µM
EC50 (HIV-1RF; MOI 0.02): 17.1 µM
EC50 (HIV-1RF; MOI 0.04): 16.8 µM
EC50 (HIV-1RF; MOI 0.08): 27.7 µM
EC50 (HIV-1RF; MOI 0.16): 21.3 µM
EC50 (HIV-1RF; MOI 0.32): 21 µM
effect of increasing the MOI on activity (HIV-1RF; in words): relatively resistant to the effects of increasing the viral MOI
EC50 (HIV-1NL4-3): 16.6 µM
detectable virion p7NC / cross-linkage of virion NC proteins [1, 3]: enter intact virions and cause disulfide cross-linkage between virion NC proteins
detectable virion p7NC / cross-linkage of virion NC proteins ([1]; non-reducing SDS-PAGE, in words, listed as 624151): decreases in the amounts of detectable virion p7NC
interactions with other viral proteins [1, 3]: no interactions with other proteins was observed
virion p7NC profile under reducing conditions ([1]; reducing conditions (not shown)): no alterations in the virion p7NC profile were observed
IC50 [2]: > 100 µM
inhibition of purified HIV-1 protease processing of recombinant Pr55^gag (HIV-1 protease): not to inhibit purified HIV-1 protease
